Article PMC11721924, “Discovery of LAH-1 as potent c-Met inhibitor for the treatment of non-small cell lung cancer” (Journal of Enzyme Inhibition and Medicinal Chemistry, 2023)
Where two headings read alike, the source gives them in different places.

Columns and labels:
EBC-1 cells [1] = assay: Cell proliferation assay (CCK-8); type: cell-based; conditions: Homo sapiens, 72 h
Procedure: (§1) Considering increased c-Met activity has been implicated in multiple tumour cells, we evaluated the half maximal inhibitory concentration (IC50) of LAH-1 in several cancer cell lines which harbour different levels of Met genetic alteration, these include human lung squamous cell carcinoma EBC-1, human gastric cancer line Hs746T, human oesophageal adenocarcinoma cell line OE33, human small-cell lung cancer SBC-5, and human glioblastoma cell U87MG.
(§2) EBC-1, Hs746T, OE33, SBC-5, U87MG, HT-1080 cell lines were purchased from ATCC, RIKEN, ECACC or JCRB. The antiproliferative activities of LAH-1 against these cells were assessed by CCK-8 assay according to the manufacturer’s protocol. Briefly, cells were seeded in 96-well plate at different density. 3-fold serial diluted compound or DMSO control was added to each well. After 72 h incubation, CCK-8 was added and incubated for another 2 h. The optical density of each well was read by microplate reader (Biotech, Shanghai, China). IC50 values were calculated by GraphPad Prism.

Hs746T cells = assay: Cell proliferation assay (CCK-8); type: cell-based; conditions: Homo sapiens, 72 h
Procedure: as §1, §2

OE33 cells = assay: Cell proliferation assay (CCK-8); type: cell-based; conditions: Homo sapiens, 72 h
Procedure: as §1, §2

SBC-5 cells = assay: Cell proliferation assay (CCK-8); type: cell-based; conditions: Homo sapiens, 72 h
Procedure: as §1, §2

U87MG cells = assay: Cell proliferation assay (CCK-8); type: cell-based; conditions: Homo sapiens, U-87 MG, 72 h
Procedure: as §1, §2

HT-1080 cells = assay: Cell proliferation assay (CCK-8); type: cell-based, human
Procedure: as §1, §2

WI-38 cells = assay: Antiproliferative inhibition, normal fibroblasts; type: cell-based; conditions: Homo sapiens
[2] = tested on: phosphorylation of c-Met, Akt, and Erk 1/2 in EBC-1 cells; assay: Western blot of c-Met signalling; type: cell-based, human; conditions: 2 h treatment
Procedure: Based on the sensitivity of LAH-1 against six cancer cell lines, we then conducted western blot assays to confirm the effect of LAH-1 on c-Met inhibition in cancer cells, and human non-small lung cancer (NSCLC) cell EBC-1 which harbours amplified Met gene was used.
Briefly, EBC-1 cells were seeded at a density of 1.5 × 10^6 cells/well and treated with Compound LAH-1 at the indicated concentration for 2 h. DMSO-treated cells were used as control groups. The whole cellular protein was extracted and measured by BCA protein assay. Total proteins were fractionated on SDS-PAGE and then transferred onto PVDF membranes (Millipore). Membranes were blocked with 5% BSA at room temperature and then incubated overnight at 4 °C with specific primary antibodies (Phospho-Met (CST, #3077S), Met (D1C2) (CST, #8198S), Phospho-Akt (CST, #4060S), Akt (pan) (C67E7) (CST, #4691S), Phospho-p44/42 MAPK (Erk1/2) (CST, #4370S), p44/42 MAPK (Erk1/2) (137F5) (CST, #4695S)) followed by the secondary antibody. Finally, the detection was performed by the Fully Automated Chemiluminescence/Fluorescence Image Analysis Systems (Tanon 5200).

EBC-1 cells [3] = assay: Annexin V-FITC/PI dual staining apoptosis assay; type: cell-based, human; conditions: EBC-1, 24 h; untreated group 1.42%
Procedure: To determine whether the observed cell death was due to physiological apoptosis, Annexin V FITC/PI dual staining assay was conducted. EBC-1cells were treated with LAH-1 at different concentrations for 24 h to examine the effect on apoptosis.
The effect of LAH-1 on EBC-1 cells apoptosis was determined by Annexin V-FITC/PI apoptosis detection kit (BD Bioscience, Cat. No. 556547). Briefly, 300,000 EBC-1 cells were seeded in 6-well plate. After treatment with or without LAH-1 for 24 h, cells were collected, stained by FITC in binding buffer preventing from light, and then labelled by PI (absin, Cat. No. abs50005-50T). The apoptotic cells were analysed by flow cytometer Cytoflex S (Beckman Coulter).

EBC-1 cells [4] = assay: Colony formation; type: cell-based, human; conditions: EBC-1, 14 days treatment, especially at 20 μM
Procedure: (§3) To investigate the effect of LAH-1 on colony formation ability, the EBC-1 cells which harbouring Met amplification were treated with different concentrations of LAH-1. […] Considering the important role of HGF/c-Met signalling in promoting cancer cell migration and invasion, the NCI-H441 cells with elevated expression level of c-Met was used. After treatment with HGF in the presence of LAH-1, the migratory and invasive abilities of NCI-H441 cells were determined.
EBC-1 cells were trypsinized and approximately 2000 cells were plated on 6-well plates. 14 days later, visible colonies were fixed and stained with 0.1% crystal violet. The number of colonies was quantified by Image J software (Developed by National Institutes of Health). A group of >50 cells was defined as one colony. All experiments were performed in duplicate wells.

NCI-H441 cells [5] = assay: HGF-induced cell migration (transwell); type: cell-based; conditions: HGF 100 ng/mL, 28 h
Procedure: as §3
(§4) NCI-H441 cells in log growth phase were suspended in serum-free medium at a density of 150,000 cells per well and then seeded in 24-well transwell plates ([8] μm; Corning). Designated control or LAH-1 treated cells were added to each migration or invasion chamber and incubated for 28 h. Additionally, HGF (100 ng/mL) was added to the lower well of each companion plate to attract cells from migration or invasion chamber plate inserts at the top of the companion plate. The invaded or migrated cells to the lower wells were then fixed and stained with crystal violet. Images were taken by Olympus BX51 microscope.

NCI-H441 cells [6] = assay: HGF-induced cell invasion (transwell); type: cell-based; conditions: HGF 100 ng/mL, 28 h
Procedure: as §3, §4

[7] = Liver microsomal stability assay; type: in vitro ADME, SD rat; conditions: RLM
Procedure: (§5) Having characterised LAH-1 as a potent c-Met inhibitor, the ADME properties and PK parameters were further determined. […] Additionally, Egg-PAMPA (Parallel artificial membrane permeability assay) confirmed LAH-1 as membrane permeable, with permeability rates (Pe) of 3.4 nm/s. […] Next, LAH-1 was further progressed into in vivo PK studies.
(§6) The liver microsomal stability assay, PAMPA, and CYP 450 Inhibition Assay were conducted according to the previous reported procedure.

[8] = Liver microsomal stability assay; type: in vitro ADME, human; conditions: HLM
Procedure: as §5, §6

[9] = Egg-PAMPA permeability assay; type: in vitro ADME; conditions: incubation 4 h
Procedure: as §5, §6

CYP1A2 = target: T1, CYP1A2 (Homo sapiens, UniProt P05177); assay: CYP450 inhibition assay; type: in vitro ADME
T1 sequence (P05177 1-516): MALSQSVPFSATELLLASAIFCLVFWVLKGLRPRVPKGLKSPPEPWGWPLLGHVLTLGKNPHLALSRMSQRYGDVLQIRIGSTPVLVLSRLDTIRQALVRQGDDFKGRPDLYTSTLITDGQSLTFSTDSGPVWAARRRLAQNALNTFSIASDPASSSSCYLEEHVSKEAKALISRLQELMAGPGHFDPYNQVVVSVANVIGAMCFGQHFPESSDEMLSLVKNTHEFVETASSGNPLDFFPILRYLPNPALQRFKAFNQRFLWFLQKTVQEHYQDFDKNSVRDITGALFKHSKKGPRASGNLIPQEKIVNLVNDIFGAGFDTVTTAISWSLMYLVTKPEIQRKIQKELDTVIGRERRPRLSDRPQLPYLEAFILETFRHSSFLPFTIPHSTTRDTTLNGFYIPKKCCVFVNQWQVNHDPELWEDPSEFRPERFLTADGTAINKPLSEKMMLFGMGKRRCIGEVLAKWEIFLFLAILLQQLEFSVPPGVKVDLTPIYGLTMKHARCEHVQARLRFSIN
Procedure: as §5, §6

CYP2C19 = CYP2C19 (Homo sapiens, UniProt P33261); assay: CYP450 inhibition assay; type: in vitro ADME
Procedure: as §5, §6

CYP2C9 = CYP2C9 (Homo sapiens, UniProt P11712); assay: CYP450 inhibition assay; type: in vitro ADME
Procedure: as §5, §6

CYP2D6 = CYP2D6 (Homo sapiens, UniProt P10635); assay: CYP450 inhibition assay; type: in vitro ADME
Procedure: as §5, §6

CYP3A4 = CYP3A4 (Homo sapiens, UniProt P08684); assay: CYP450 inhibition assay; type: in vitro ADME
Procedure: as §5, §6

In vivo pharmacokinetics = assay: In vivo pharmacokinetics; set-up: species or system SD rats
Procedure: as §5
PK parameters of LAH-1 was determined in SD rats (male, n = 3 per group) weighing (200–240 g), which were obtained from SpePharm (Beijing) Biotechnology Co., Ltd. Briefly, rats were fasted overnight before dosing, LAH-1 was given as a solution in 10% DMSO with 90% Saline for intravenously (5 mg/kg) and 0.1% PEG400 in 0.5% CMC-Na in water for PO (20 mg/kg). Each rat received 2 or 10 ml of the dosing solution/kg of body weight by intravenous injection and by gavage, respectively. Blood sample was collected at 0.033 (iv only), 0.083, 0.25, 0.5,1, 2, 4, 6, 8, 12 and 24 h after dosing and stored in ice (0–4 °C). Plasma was separated by centrifugation within 15 min post sampling. Levels of LAH-1 in blood were determined by 6500+ Triple Quad LC-MS/MS System (AB SCIEX LLC, CA, USA). The PK parameters were calculated with WinNonlin software using noncompartmental analysis.

KDR = KDR (Homo sapiens, UniProt P35968); assay: Kinase profile, KDR; conditions: 300 nM
[10] = tested on: panel of 18 diversified kinases; assay: Kinase profile against a panel of 18 kinases; conditions: 300 nM; including highly homologous kinases RON and Axl
c-Met = c-Met (Homo sapiens, UniProt P08581); assay: In vitro enzymatic assay (mobility shift assay, ATP at Km)
Procedure: The compound and enzyme solution were added to the assay plate and incubate at room temperature for 10 min. Then the peptide solution was added, incubate at 28 °C for specified period of time, and subsequently added the stop buffer. Data was collected on Calliper, and IC50 values were calculated from the inhibition curves.

[11] = Sprague-Dawley, rat, plasma, iv, 5 mg/kg, male SD rats
[12] = Sprague-Dawley, rat, plasma, po, 20 mg/kg, male SD rats

Sequence of CYP2C9 (P11712 whole entry): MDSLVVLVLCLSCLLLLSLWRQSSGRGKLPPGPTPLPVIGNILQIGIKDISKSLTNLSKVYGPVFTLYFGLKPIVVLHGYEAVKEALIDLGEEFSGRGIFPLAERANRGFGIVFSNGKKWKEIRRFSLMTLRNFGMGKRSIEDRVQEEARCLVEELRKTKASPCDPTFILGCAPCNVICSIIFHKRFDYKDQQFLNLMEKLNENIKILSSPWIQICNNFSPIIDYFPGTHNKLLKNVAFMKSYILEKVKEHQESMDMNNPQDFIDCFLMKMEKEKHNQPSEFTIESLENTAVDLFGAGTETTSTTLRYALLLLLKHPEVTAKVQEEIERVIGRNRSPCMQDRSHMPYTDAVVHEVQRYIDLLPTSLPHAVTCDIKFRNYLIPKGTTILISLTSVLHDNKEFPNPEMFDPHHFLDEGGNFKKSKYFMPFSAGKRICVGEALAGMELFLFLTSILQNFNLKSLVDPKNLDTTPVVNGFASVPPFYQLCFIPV
Sequence of c-Met (P08581 956-1390 limits assumed): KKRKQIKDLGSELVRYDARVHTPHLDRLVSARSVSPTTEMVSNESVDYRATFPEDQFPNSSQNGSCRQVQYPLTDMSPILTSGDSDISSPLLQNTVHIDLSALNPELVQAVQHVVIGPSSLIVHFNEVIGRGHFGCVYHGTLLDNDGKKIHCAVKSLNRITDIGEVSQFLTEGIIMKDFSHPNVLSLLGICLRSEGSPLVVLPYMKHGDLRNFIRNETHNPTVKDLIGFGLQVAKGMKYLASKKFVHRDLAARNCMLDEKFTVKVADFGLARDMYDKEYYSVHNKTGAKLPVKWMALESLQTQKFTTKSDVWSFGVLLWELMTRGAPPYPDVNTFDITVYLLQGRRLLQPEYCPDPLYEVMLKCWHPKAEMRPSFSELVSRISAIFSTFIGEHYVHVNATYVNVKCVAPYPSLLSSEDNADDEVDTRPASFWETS
Sequence of CYP2D6 (P10635 whole entry): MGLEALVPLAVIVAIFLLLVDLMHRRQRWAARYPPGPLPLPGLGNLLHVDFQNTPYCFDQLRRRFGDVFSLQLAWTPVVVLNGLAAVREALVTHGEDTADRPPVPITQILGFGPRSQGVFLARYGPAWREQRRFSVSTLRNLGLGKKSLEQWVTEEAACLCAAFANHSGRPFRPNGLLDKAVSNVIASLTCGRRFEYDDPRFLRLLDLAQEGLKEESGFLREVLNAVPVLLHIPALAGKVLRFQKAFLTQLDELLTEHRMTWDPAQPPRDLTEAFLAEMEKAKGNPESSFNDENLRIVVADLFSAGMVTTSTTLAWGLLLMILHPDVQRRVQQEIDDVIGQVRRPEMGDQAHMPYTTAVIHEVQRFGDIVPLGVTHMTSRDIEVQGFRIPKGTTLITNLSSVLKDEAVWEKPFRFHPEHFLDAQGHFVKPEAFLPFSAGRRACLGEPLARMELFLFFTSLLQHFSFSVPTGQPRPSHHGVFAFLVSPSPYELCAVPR
Sequence of CYP2C19 (P33261 whole entry): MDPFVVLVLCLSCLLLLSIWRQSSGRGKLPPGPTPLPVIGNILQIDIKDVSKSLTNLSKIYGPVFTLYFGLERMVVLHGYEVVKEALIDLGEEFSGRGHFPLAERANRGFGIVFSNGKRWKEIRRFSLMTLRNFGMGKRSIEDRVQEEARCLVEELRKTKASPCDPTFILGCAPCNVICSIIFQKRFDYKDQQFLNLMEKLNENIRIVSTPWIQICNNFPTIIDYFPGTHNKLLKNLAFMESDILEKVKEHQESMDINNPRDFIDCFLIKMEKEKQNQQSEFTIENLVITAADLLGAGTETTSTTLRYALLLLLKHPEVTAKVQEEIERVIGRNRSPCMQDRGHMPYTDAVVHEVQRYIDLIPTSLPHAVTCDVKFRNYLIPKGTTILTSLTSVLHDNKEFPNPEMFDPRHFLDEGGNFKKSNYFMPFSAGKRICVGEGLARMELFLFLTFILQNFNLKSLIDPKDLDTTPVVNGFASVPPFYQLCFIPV
Sequence of KDR (P35968 20-1356, species assumed): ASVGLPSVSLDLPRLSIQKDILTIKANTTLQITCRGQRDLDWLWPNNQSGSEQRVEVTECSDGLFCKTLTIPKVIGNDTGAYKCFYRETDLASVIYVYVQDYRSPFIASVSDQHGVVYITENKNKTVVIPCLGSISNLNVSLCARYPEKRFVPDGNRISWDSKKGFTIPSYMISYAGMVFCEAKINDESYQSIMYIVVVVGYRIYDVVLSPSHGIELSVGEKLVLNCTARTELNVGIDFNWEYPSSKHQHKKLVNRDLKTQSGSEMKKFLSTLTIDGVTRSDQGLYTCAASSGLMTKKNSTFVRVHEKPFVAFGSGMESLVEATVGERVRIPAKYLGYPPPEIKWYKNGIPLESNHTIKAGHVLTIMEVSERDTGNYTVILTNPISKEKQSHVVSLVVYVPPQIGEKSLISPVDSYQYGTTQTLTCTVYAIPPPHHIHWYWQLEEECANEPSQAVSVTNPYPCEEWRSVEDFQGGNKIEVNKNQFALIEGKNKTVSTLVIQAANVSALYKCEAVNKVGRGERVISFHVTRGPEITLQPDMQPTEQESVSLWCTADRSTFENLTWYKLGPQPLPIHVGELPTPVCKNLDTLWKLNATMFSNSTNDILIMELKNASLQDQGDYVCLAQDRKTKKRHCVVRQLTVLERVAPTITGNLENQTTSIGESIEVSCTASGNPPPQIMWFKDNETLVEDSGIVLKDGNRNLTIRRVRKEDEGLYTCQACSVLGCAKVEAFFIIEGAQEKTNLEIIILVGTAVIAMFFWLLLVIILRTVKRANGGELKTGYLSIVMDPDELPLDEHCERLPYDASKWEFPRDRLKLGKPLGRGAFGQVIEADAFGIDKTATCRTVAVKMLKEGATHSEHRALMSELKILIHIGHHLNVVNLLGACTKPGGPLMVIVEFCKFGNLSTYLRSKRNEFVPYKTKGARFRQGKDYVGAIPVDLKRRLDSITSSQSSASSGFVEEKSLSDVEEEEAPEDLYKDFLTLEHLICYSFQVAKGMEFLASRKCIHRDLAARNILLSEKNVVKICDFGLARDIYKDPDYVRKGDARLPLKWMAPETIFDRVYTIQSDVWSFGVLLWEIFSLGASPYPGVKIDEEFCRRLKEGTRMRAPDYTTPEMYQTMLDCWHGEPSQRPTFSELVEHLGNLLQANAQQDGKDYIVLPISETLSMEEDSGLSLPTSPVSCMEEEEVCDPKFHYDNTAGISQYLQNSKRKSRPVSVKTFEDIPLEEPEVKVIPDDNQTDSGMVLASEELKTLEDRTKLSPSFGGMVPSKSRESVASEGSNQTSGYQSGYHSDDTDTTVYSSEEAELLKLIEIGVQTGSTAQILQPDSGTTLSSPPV
Sequence of CYP3A4 (P08684 whole entry): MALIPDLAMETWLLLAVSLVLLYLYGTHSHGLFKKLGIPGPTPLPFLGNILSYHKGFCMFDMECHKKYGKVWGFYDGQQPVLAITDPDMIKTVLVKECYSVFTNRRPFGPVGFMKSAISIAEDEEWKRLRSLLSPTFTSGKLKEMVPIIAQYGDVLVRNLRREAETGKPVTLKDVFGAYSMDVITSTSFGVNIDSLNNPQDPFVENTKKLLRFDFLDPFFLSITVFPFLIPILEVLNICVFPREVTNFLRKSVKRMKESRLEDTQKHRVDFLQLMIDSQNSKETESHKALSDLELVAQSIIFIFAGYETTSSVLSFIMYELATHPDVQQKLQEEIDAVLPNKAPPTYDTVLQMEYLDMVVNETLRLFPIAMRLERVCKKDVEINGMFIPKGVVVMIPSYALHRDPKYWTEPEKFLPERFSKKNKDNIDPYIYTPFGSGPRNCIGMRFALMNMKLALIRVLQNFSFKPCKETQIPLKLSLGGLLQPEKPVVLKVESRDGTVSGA

Cc1cc(=O)n(-c2ccc(F)cc2)nc1C(=O)Nc1ccc(Oc2ccnc(NC(=O)N3CC(O)C3)c2)c(F)c1 [LAH-1, N-(3-fluoro-4-((2-(3-hydroxyazetidine-1-carboxamido)pyridin-4-yl)oxy)phenyl)-1-(4-fluorophenyl)-4-methyl-6-oxo-1,6-dihydropyridazine-3-carboxamide]
IC50 (EBC-1 cells [1]): 1.15 µM | IC50 (Hs746T cells): 2.35 µM | IC50 (OE33 cells): 4.28 µM | IC50 (SBC-5 cells): 16.1 µM | IC50 (U87MG cells): 15.7 µM | IC50 (HT-1080 cells; Homo sapiens, HT-1080, 72 h, CCK-8, c-Met non-addicted cell line): > 100 µM | effect on HT-1080 (in words) (HT-1080 cells; cell line with low expression or activation of c-Met): minimal effect | inhibition at 100 µM (WI-38 cells): 34.5% | phosphorylation level of c-Met, Akt, and Erk 1/2 [2]: dose-dependent decrease | early apoptosis (EBC-1 cells [3]): 16.8% | colony formation (EBC-1 cells [4]): significantly inhibited | migration of HGF-induced NCI-H441 cells (NCI-H441 cells [5]): dose dependent suppressed | invasion of HGF-induced NCI-H441 cells (NCI-H441 cells [6]): dose dependent suppressed | Remaining (T = 60min) [7]: 81.2% | half-life ([7]; Sprague-Dawley, rat, liver microsomes): > 2.08 h | microsomal CLint ([7]; Sprague-Dawley, rat, liver microsomes, read-out: CL int): < 8.6 µL/min/mg | Remaining (T = 60min) [8]: 88.7% | half-life ([8]; human, liver microsomes): > 2.08 h | microsomal CLint ([8]; human, liver microsomes, read-out: CL int): < 8.6 µL/min/mg | Permeability ([9]; 10 μM): Moderate | Papp at 4 h, 10 μM ([9]; read-out: Mean Pe): 0.34 ×10⁻⁶ cm/s | inhibition at 10 µM (CYP1A2): 12.8% | inhibition at 10 µM (CYP2C19): 15.6% | inhibition at 10 µM (CYP2C9): 50.7% | inhibition at 10 µM (CYP2D6): 21.5% | inhibition at 10 µM (CYP3A4): 32.2% | AUC(0-inf) (In vivo pharmacokinetics; [11]): 16800 ng·h/mL | Cmax (In vivo pharmacokinetics; [11]): 14900 ng/mL | clearance (In vivo pharmacokinetics; [11]): 19.2 mL/min/kg | half-life (In vivo pharmacokinetics; [11]): 1.6 h | bioavailability (In vivo pharmacokinetics; Sprague-Dawley, rat, plasma, po 20 mg/kg vs iv 5 mg/kg, male SD rats, read-out: F% (oral bioavailability)): 12.2% | AUC(0-inf) (In vivo pharmacokinetics; [12]): 8210 ng·h/mL | Cmax (In vivo pharmacokinetics; [12]): 4460 ng/mL | Tmax (In vivo pharmacokinetics; [12]): 0.33 h | half-life (In vivo pharmacokinetics; [12]): 2.2 h | plasma clearance (in words) (In vivo pharmacokinetics; iv, 5 mg/kg, SD rats): moderate plasma clearance | inhibition on KDR (KDR): showed inhibition | selectivity over the other 16 kinases [10]: great selectivity | IC50 (c-Met): 0.049 µM
